# Reference: patent US6737383B1, “Herbicidal oxadiazolidines” (priority 1999, dated 2004)
# Columns and labels:
# bedstraw = assay: Test B pre/postemergence bedstraw; type: in vivo, Galium aparine
# In short: (§1)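 Test chemicals in a non-phytotoxic solvent mixture with surfactant were sprayed preemergence onto planted seeds and postemergence onto plants 2 to 18 cm tall (1- to 4-leaf stage). After twelve to sixteen days in a greenhouse, injury was visually rated against untreated controls from 0 (no effect) to 10 (complete control).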
# blackgrass = assay: Test B pre/postemergence blackgrass; type: in vivo, Alopecurus myosuroides
# In short: as §1
# surinam grass = assay: Test B pre/postemergence surinam grass; type: in vivo, Brachiaria decumbens
# In short: as §1
# cocklebur = assay: Test B pre/postemergence cocklebur; type: in vivo, Xanthium strumarium
# In short: as §1
# corn = assay: Test B pre/postemergence corn; type: in vivo, Zea mays
# In short: as §1
# crabgrass = assay: Test B pre/postemergence crabgrass; type: in vivo, Digitaria sanguinalis
# In short: as §1
# giant foxtail = assay: Test B pre/postemergence giant foxtail; type: in vivo, Setaria faberii
# In short: as §1
# pigweed = assay: Test B pre/postemergence pigweed; type: in vivo, Amaranthus retroflexus
# In short: as §1
# soybean = assay: Test B pre/postemergence soybean; type: in vivo, Glycine max
# In short: as §1
# sugar beet = assay: Test B pre/postemergence sugar beet; type: in vivo, Beta vulgaris
# In short: as §1
# velvetleaf = assay: Test B pre/postemergence velvetleaf; type: in vivo, Abutilon theophrasti
# In short: as §1
# wild oat = assay: Test B pre/postemergence wild oat; type: in vivo, Avena fatua
# In short: as §1
# purple nutsedge = assay: Test B pre/postemergence purple nutsedge; type: in vivo, Cyperus rotundus
# In short: as §1
# rice = assay: Test B flood test rice; type: in vivo, Oryza sativa
# In short: (§2)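 Read-out is a visual response score from 0 (no effect) to 10 (complete control), assigned by comparison with untreated controls. Treatment was applied at the 2-leaf stage, and plants stayed in the greenhouse for twelve to sixteen days before scoring.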
# smallflower flatsedge = assay: Test B flood test smallflower flatsedge; type: in vivo, Cyperus difformis
# In short: as §2
# bamyardgrass = assay: Test B flood test barnyardgrass; type: in vivo, Echinochloa crus-galli
# In short: as §2
# [1] = Preemergence, Rate 62 g/ha, scale of 0 to 10 where 0 is no effect and 10 is complete control
# [2] = Preemergence, Rate 125 g/ha, 0 is no effect, 10 is complete control
# [3] = Preemergence, Rate 250 g/ha, scale 0 to 10, 0 is no effect, 10 is complete control
# [4] = Preemergence, Rate 500 g/ha, scale 0 (no effect) to 10 (complete control)
# [5] = Preemergence, Rate 500 g/ha, scale of 0 to 10 where 0 is no effect and 10 is complete control
# [6] = Rate 62 g/ha, Postemergence, scale of 0 to 10 where 0 is no effect and 10 is complete control
# [7] = Rate 125 g/ha, Postemergence, scale 0 to 10
# [8] = Rate 500 g/ha, Postemergence, scale 0 to 10
# [9] = Rate 62 g/ha, headed Pre-emergence (flood test species), scale 0 to 10 (0 no effect, 10 complete control)
# [10] = Rate 125 g/ha, Pre-emergence, flood test species, scale 0 to 10 where 0 is no effect and 10 is complete control
# [11] = Rate 250 g/ha, Pre-emergence, flood-test species, scale 0 to 10, 0 is no effect, 10 is complete control
# [12] = Rate 500 g/ha, headed Pre-emergence (flood test species), scale 0 to 10 (0 no effect, 10 complete control)
smiles,measurement,setting,value
CCc1cccc(C)c1-n1c(=O)on(C(=O)N(c2ccc(F)cc2)C(C)C)c1=O [Compound 201],Bedstraw plant response rating,bedstraw; [1],0
same,Bedstraw plant response rating (0 to 10 scale),bedstraw; [2],0
same,Bedstraw plant response rating,bedstraw; [3],0
same,Bedstraw plant response rating,bedstraw; [4],0
same,"Plant response rating, Bedstraw",bedstraw; [5],0
same,Bedstraw plant response rating,bedstraw; [6],0
same,Bedstraw plant response rating,bedstraw; [7],0
same,"Plant response rating (0 to 10; 0 is no effect, 10 is complete control), Bedstraw","bedstraw; Rate 250 g/ha, Postemergence",0
same,Bedstraw plant response rating,bedstraw; [8],0
same,Blackgrass plant response rating,blackgrass; [1],0
same,Blackgrass plant response rating (0 to 10 scale),blackgrass; [2],0
same,Blackgrass plant response rating,blackgrass; [3],4
same,Blackgrass plant response rating,blackgrass; [4],4
same,"Plant response rating, Blackgrass",blackgrass; [5],4
same,Blackgrass plant response rating,blackgrass; [6],0
same,Blackgrass plant response rating,blackgrass; [7],0
same,"Plant response rating (0 to 10; 0 is no effect, 10 is complete control), Blackgrass","blackgrass; Rate 250 g/ha, Postemergence",0
same,Blackgrass plant response rating,blackgrass; [8],4
same,B. signalgrass plant response rating,surinam grass; [1],0
same,B. signalgrass plant response rating (0 to 10 scale),surinam grass; [2],0
same,B. signalgrass plant response rating,surinam grass; [3],0
same,B. signalgrass plant response rating,surinam grass; [4],0
same,"Plant response rating, B. signalgrass",surinam grass; [5],4
same,B. signalgrass plant response rating,surinam grass; [6],0
same,B. signalgrass plant response rating,"surinam grass; Rate 125 g/ha, Postemergence, scale 0 (no effect) to 10 (complete control)",0
same,"Plant response rating, B. signalgrass","surinam grass; Rate 250 g/ha, Postemergence, scale 0 to 10, 0 is no effect, 10 is complete control",0
same,B. signalgrass plant response rating,"surinam grass; Rate 500 g/ha, Postemergence, scale 0 to 10, 0 no effect, 10 complete control",0
same,Cocklebur plant response rating,cocklebur; [1],0
same,Cocklebur plant response rating (0 to 10 scale),cocklebur; [2],0
same,Cocklebur plant response rating,cocklebur; [3],0
same,Cocklebur plant response rating,cocklebur; [4],0
same,"Plant response rating, Cocklebur",cocklebur; [5],0
same,Cocklebur plant response rating,cocklebur; [6],0
same,Cocklebur plant response rating,cocklebur; [7],0
same,"Plant response rating (0 to 10; 0 is no effect, 10 is complete control), Cocklebur","cocklebur; Rate 250 g/ha, Postemergence",0
same,Cocklebur plant response rating,cocklebur; [8],0
same,Corn plant response rating,corn; [1],0
same,Corn plant response rating (0 to 10 scale),corn; [2],0
same,Corn plant response rating,corn; [3],0
same,Corn plant response rating,corn; [4],0
same,"Plant response rating, Corn",corn; [5],0
same,Corn plant response rating,corn; [6],0
same,Corn plant response rating,corn; [7],0
same,"Plant response rating (0 to 10; 0 is no effect, 10 is complete control), Corn","corn; Rate 250 g/ha, Postemergence",0
same,Corn plant response rating,corn; [8],0
same,Crabgrass plant response rating,crabgrass; [1],0
same,Crabgrass plant response rating (0 to 10 scale),crabgrass; [2],5
same,Crabgrass plant response rating,crabgrass; [3],9
same,Crabgrass plant response rating,crabgrass; [4],4
same,"Plant response rating, Crabgrass",crabgrass; [5],9
same,Crabgrass plant response rating,crabgrass; [6],0
same,Crabgrass plant response rating,crabgrass; [7],0
same,"Plant response rating (0 to 10; 0 is no effect, 10 is complete control), Crabgrass","crabgrass; Rate 250 g/ha, Postemergence",0
same,Crabgrass plant response rating,crabgrass; [8],0
same,Giant foxtail plant response rating,giant foxtail; [1],2
same,Giant foxtail plant response rating (0 to 10 scale),giant foxtail; [2],6
same,Giant foxtail plant response rating,giant foxtail; [3],8
same,Giant foxtail plant response rating,giant foxtail; [4],10
same,"Plant response rating, Giant foxtail",giant foxtail; [5],10
same,Giant foxtail plant response rating,giant foxtail; [6],0
same,Giant foxtail plant response rating,giant foxtail; [7],0
same,"Plant response rating (0 to 10; 0 is no effect, 10 is complete control), Giant foxtail","giant foxtail; Rate 250 g/ha, Postemergence",0
same,Giant foxtail plant response rating,giant foxtail; [8],0
same,Redroot pigweed plant response rating,pigweed; [1],0
same,Redroot pigweed plant response rating (0 to 10 scale),pigweed; [2],0
same,Redroot pigweed plant response rating,pigweed; [3],0
same,Redroot pigweed plant response rating,pigweed; [4],0
same,"Plant response rating, Redroot pigweed",pigweed; [5],0
same,Redroot pigweed plant response rating,pigweed; [6],0
same,Redroot pigweed plant response rating,pigweed; [7],0
same,"Plant response rating (0 to 10; 0 is no effect, 10 is complete control), Redroot pigweed","pigweed; Rate 250 g/ha, Postemergence",0
same,Redroot pigweed plant response rating,pigweed; [8],3
same,Soybean plant response rating,soybean; [1],0
same,Soybean plant response rating (0 to 10 scale),soybean; [2],0
same,Soybean plant response rating,soybean; [3],0
same,Soybean plant response rating,soybean; [4],0
same,"Plant response rating, Soybean",soybean; [5],0
same,Soybean plant response rating,soybean; [6],1
same,Soybean plant response rating,soybean; [7],1
same,"Plant response rating (0 to 10; 0 is no effect, 10 is complete control), Soybean","soybean; Rate 250 g/ha, Postemergence",2
same,Soybean plant response rating,soybean; [8],3
same,Sugarbeets plant response rating,sugar beet; [1],0
same,Sugarbeets plant response rating (0 to 10 scale),sugar beet; [2],0
same,Sugarbeets plant response rating,sugar beet; [3],0
same,Sugarbeets plant response rating,sugar beet; [4],0
same,"Plant response rating, Sugarbeets",sugar beet; [5],0
same,Sugarbeets plant response rating,sugar beet; [6],0
same,Sugarbeets plant response rating,sugar beet; [7],0
same,"Plant response rating (0 to 10; 0 is no effect, 10 is complete control), Sugarbeets","sugar beet; Rate 250 g/ha, Postemergence",3
same,Sugarbeets plant response rating,sugar beet; [8],4
same,Velvetleaf plant response rating,velvetleaf; [1],0
same,Velvetleaf plant response rating,velvetleaf; [3],0
same,Velvetleaf plant response rating,velvetleaf; [4],0
same,"Plant response rating, Velvetleaf",velvetleaf; [5],0
same,Velvetleaf plant response rating,velvetleaf; [6],0
same,Velvetleaf plant response rating,velvetleaf; [7],0
same,"Plant response rating (0 to 10; 0 is no effect, 10 is complete control), Velvetleaf","velvetleaf; Rate 250 g/ha, Postemergence",1
same,Wild oats plant response rating,wild oat; [1],0
same,Wild oats plant response rating,wild oat; [3],3
same,Wild oats plant response rating,wild oat; [4],0
same,"Plant response rating, Wild oats",wild oat; [5],5
same,Wild oats plant response rating,wild oat; [6],0
same,Wild oats plant response rating,wild oat; [7],0
same,"Plant response rating (0 to 10; 0 is no effect, 10 is complete control), Wild oats","wild oat; Rate 250 g/ha, Postemergence",0
same,Nutsedge plant response rating,purple nutsedge; [1],0
same,Nutsedge plant response rating (0 to 10 scale),purple nutsedge; [2],0
same,Nutsedge plant response rating,purple nutsedge; [4],0
same,Nutsedge plant response rating,purple nutsedge; [6],0
same,Nutsedge plant response rating,purple nutsedge; [7],0
same,"Plant response rating (0 to 10; 0 is no effect, 10 is complete control), Nutsedge","purple nutsedge; Rate 250 g/ha, Postemergence",0
same,Nutsedge plant response rating,purple nutsedge; [8],0
same,Rice plant response rating,rice; [9],0
same,Rice plant response rating,rice; [10],0
same,Rice plant response rating,rice; [11],0
same,"Plant response rating, Rice",rice; [12],0
same,S. Flatsedge plant response rating,smallflower flatsedge; [9],0
same,S. Flatsedge plant response rating,smallflower flatsedge; [10],0
same,S. Flatsedge plant response rating,smallflower flatsedge; [11],0
same,S. Flatsedge plant response rating,"smallflower flatsedge; Rate 500 g/ha, Pre-emergence, flood test species, scale 0 to 10 (0 no effect, 10 complete control)",7
same,Barnyardgrass plant response rating,bamyardgrass; [9],0
same,Barnyardgrass plant response rating,bamyardgrass; [10],0
same,Barnyardgrass plant response rating,bamyardgrass; [11],0
same,"Plant response rating, Barnyardgrass",bamyardgrass; [12],9
